PubChem BioAssay (NCI)
Values joined by “and” are separate entries in the source; they are usually repeats but may differ in a detail not shown here. Equal entries are not always repeated.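 96-well plates; 48 h exposure; 5 concentrations. Endpoints by linear interpolation between flanking doses. Not reached: highest tested concentration assigned. The concentration for full growth arrest is given as TGI.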

Key:
Assay in all cases: NCI tumour cell line growth inhibition, 48 h
NCI-H522 lung = tested on: NCI-H522 lung
A549 NSCLC = tested on: A549 NSCLC
SNB-75 CNS = tested on: SNB-75 CNS
SF-295 CNS = tested on: SF-295 CNS
TK-10 renal = tested on: TK-10 renal
LOX IMVI melanoma = tested on: LOX IMVI melanoma
SK-OV-3 ovarian = tested on: SK-OV-3 ovarian
RPMI-8226 leukemia = tested on: RPMI-8226 leukemia
RXF 393 renal = tested on: RXF 393 renal
SW-620 colon = tested on: SW-620 colon
SK-MEL-28 melanoma = tested on: SK-MEL-28 melanoma
SK-MEL-2 melanoma = tested on: SK-MEL-2 melanoma
ACHN renal = tested on: ACHN renal
OVCAR-5 ovarian = tested on: OVCAR-5 ovarian
NCI/ADR-RES ovarian = tested on: NCI/ADR-RES ovarian
BT-549 breast = tested on: BT-549 breast
MDA-N = tested on: MDA-N
HS 578T breast = tested on: HS 578T breast
MDA-MB-435 = tested on: MDA-MB-435
MDA-MB-231 breast = tested on: MDA-MB-231 breast

Row | Structure (SMILES) | TGI (NCI-H522 lung) | TGI (A549 NSCLC) | TGI (SNB-75 CNS) | TGI (SF-295 CNS) | TGI (TK-10 renal) | TGI (LOX IMVI melanoma) | TGI (SK-OV-3 ovarian) | TGI (RPMI-8226 leukemia) | TGI (RXF 393 renal) | TGI (SW-620 colon) | TGI (SK-MEL-28 melanoma) | TGI (SK-MEL-2 melanoma) | TGI (ACHN renal) | TGI (OVCAR-5 ovarian) | TGI (NCI/ADR-RES ovarian) | TGI (BT-549 breast) | TGI (MDA-N) | TGI (HS 578T breast) | TGI (MDA-MB-435) | TGI (MDA-MB-231 breast)
1 | Cc1c(N2CCN(C)CC2)nc2ccc(Cl)cc2c1-c1ccccc1 | 38.6 µM | 36.9 µM | 36.5 µM | 31.2 µM | > 10 µM | 28.3 µM | > 100 µM | 44.9 µM | 42.3 µM | 34.6 µM | 32.9 µM | 36.5 µM | 57.7 µM |  |  |  |  |  |  | 
2 | COC(=O)c1ccc(N=NN(C)COc2ccc(Br)cc2)cc1 | > 100 µM | > 100 µM | > 100 µM | > 100 µM |  | > 100 µM | > 100 µM | > 79.8 µM | > 100 µM | > 100 µM | > 100 µM | > 100 µM |  | > 100 µM | > 100 µM |  |  |  |  | 
3 | Cn1c(=O)c2c(nc3n2CCCC(=O)N3CC(O)CCl)n(C)c1=O (stereo unspecified) | > 100 µM | > 100 µM | > 100 µM | > 100 µM | > 100 µM | > 100 µM | > 100 µM | > 100 µM | > 100 µM | > 100 µM | > 100 µM | > 100 µM | > 100 µM | > 100 µM | > 100 µM | > 100 µM | > 100 µM | > 100 µM | > 100 µM | 
4 | O=C1c2ccccc2-c2nnc3c(c21)-c1ccccc1C3 | > 100 µM | > 100 µM | > 100 µM | > 100 µM |  |  | > 100 µM | > 100 µM | > 100 µM | > 100 µM |  | > 100 µM | 84.6 µM | > 100 µM | > 100 µM |  | > 100 µM | > 100 µM | > 100 µM | > 100 µM
5 | CC(=O)Nc1ccc2c3c(cc(O)c2c1)N(C(=O)CCCCCCC(=O)N1CC(CCl)c2c1cc(O)c1cc(NC(C)=O)ccc21)CC3CCl (stereo unspecified) | 0.0695 µM | > 100 µM | < 0.01 µM | 3.19 µM | 0.0702 µM | 0.361 µM | 12.4 µM |  | 0.0185 µM | > 100 µM | > 100 µM | < 0.01 µM | 0.0345 µM | 0.243 µM | > 74.6 µM | 0.0914 µM |  |  | 0.0604 µM | 
6 | O=C1C(=O)N(c2cccc(C(F)(F)F)c2)C(=S)N1c1ccccc1 | 28 µM | > 100 µM | > 100 µM | > 100 µM | 8.84 µM |  | 70.4 µM | > 100 µM | > 100 µM | > 100 µM | 88.8 µM | 40.5 µM | 30.6 µM | 80.5 µM | > 100 µM |  | 71.9 µM | > 100 µM | 82.4 µM | 57.2 µM
7 | COc1ccc(CCCNC(=O)c2cc(OC)c(OC)cc2CCO)cc1OC | > 100 µM | > 100 µM | > 100 µM | > 100 µM | > 100 µM | > 100 µM | > 100 µM | > 100 µM | > 100 µM | > 100 µM | > 100 µM | > 100 µM | > 100 µM | > 100 µM | > 100 µM | > 100 µM |  | > 100 µM | > 100 µM | > 100 µM
8 | CC(C)NC(=O)N(Nc1ccccc1)C(C)(C)C |  | > 100 µM | > 100 µM | > 100 µM | > 100 µM | > 100 µM | > 100 µM |  | > 100 µM | > 100 µM | > 100 µM | > 100 µM | > 100 µM | > 100 µM | > 100 µM | > 100 µM | > 100 µM | > 100 µM |  | > 100 µM
9 | CCOc1ccc(N/C(=C(/C(Cl)=C(/Cl)N2CCCCC2)[N+](=O)[O-])n2nnc3ccccc32)cc1 | 22 µM | 62.9 µM | 50.6 µM | 49 µM | > 100 µM |  | 82 µM | > 100 µM |  |  | 34.2 µM | 33.3 µM | 36 µM | 32.5 µM | 43.5 µM | 34.6 µM | 52.4 µM |  | 32.3 µM | 44.5 µM
10 | O=C(CN1CCOCC1)c1ccc2c(c1)oc(=O)n2CCN1CCOCC1 |  |  | > 100 µM | > 100 µM |  | > 100 µM | > 100 µM | > 100 µM | > 100 µM | > 100 µM | > 100 µM | > 100 µM |  | > 100 µM | > 100 µM |  | > 100 µM | > 100 µM | > 100 µM | > 100 µM
11 | C=C(CCC/C(C)=C/C=C/[C@@H](C)CCCc1ccoc1)C[C@@H]1OC(=O)[C@H](C)[C@@H]1O | 15.5 µM | 17 µM | 19 µM | 19.1 µM | 25.8 µM | 21.8 µM | 15.8 µM | 43.4 µM | 19.3 µM | 23.7 µM | 19.1 µM | 17.7 µM | 16.2 µM | > 50 µM | 19.9 µM | 17.1 µM | 21.5 µM |  | 16.3 µM | 16.9 µM
12 | CC(C)N=C(N)NC#N | > 100 µM | > 100 µM | > 100 µM | > 100 µM |  | > 100 µM | > 100 µM | > 100 µM |  | > 100 µM |  | > 100 µM | > 100 µM | > 100 µM |  |  |  |  |  | 
13 | CCCCCCCCCCCCCCCCCCNC(=S)/N=C\C1=C(O)c2ccccc2C1=O |  | 28 µM |  | 31.2 µM | 30.6 µM | 17 µM | 33.6 µM | 33.1 µM |  | 25.3 µM | 30.7 µM |  | 26.2 µM | 26.9 µM | 31.7 µM | 33.9 µM | 31.4 µM | 35 µM | 30.9 µM | 24.6 µM
14 | COC1C(O)C(n2ncc3c(SC)nc(SC)nc32)OC1C(O)CO (stereo unspecified) | > 100 µM | > 100 µM | > 100 µM | > 100 µM |  | > 100 µM | > 100 µM | > 100 µM | > 100 µM | > 100 µM | > 100 µM | > 100 µM |  | > 100 µM | > 100 µM |  |  |  |  | 
15 | Nc1nc2ncc(CNc3ccc(C(=O)NC(CCC(=O)O)C(=O)O)cc3)nc2c(=O)[nH]1 (stereo unspecified) | > 100 µM | > 100 µM | > 100 µM | > 100 µM | > 100 µM | > 100 µM |  | > 100 µM | > 100 µM | > 100 µM | > 100 µM | > 100 µM | > 100 µM | > 100 µM | > 100 µM | > 100 µM |  | > 100 µM | > 100 µM | 
16 | CC[C@@]1(C)CCC2c3ccc(O)cc3CC[C@H]2C1C (stereo partly specified) | 36.1 µM | 33.6 µM | 37.2 µM | 34.6 µM | 33.3 µM | 31.9 µM |  | 39.5 µM | 26 µM | 32.4 µM | 32 µM | 32.8 µM | 32.7 µM | 33.3 µM | 35.7 µM | 33.8 µM | 25.8 µM | 35.5 µM | 30.2 µM | 
17 | COC1CN(C)C(=Nc2cccc3ccccc23)S1 (stereo unspecified) | > 10 µM | > 10 µM | > 10 µM | > 10 µM | > 10 µM | > 10 µM | > 10 µM | > 10 µM |  | > 10 µM | > 10 µM |  | > 10 µM | > 10 µM | > 10 µM | > 10 µM | > 10 µM | > 10 µM | > 10 µM | > 10 µM
18 | CCOC(=O)c1cc2/c(=C\c3ccc(N(C)C)cc3)c3ccccc3n2[n+]1C |  | > 40 µM |  | 16.1 µM | 21.9 µM | 3.78 µM | 16.3 µM |  | 4.78 µM | 13.1 µM | 14 µM | 4.74 µM | 20.4 µM | 20.4 µM | > 100 µM | 7.11 µM | 15.3 µM |  | 11.5 µM | 18.9 µM
19 | Cc1c2c(c(O)c3c(O)cccc13)C(=O)C1(O)C(O)=C(C(=O)NCNc3ccc(C(N)=O)cn3)C(=O)C(N(C)C)C1C2 (stereo unspecified) |  | 23 µM | 9.22 µM | 17.9 µM | 49.2 µM | > 100 µM | 8.78 µM | 7.59 µM | 20.1 µM | 42 µM | 14.6 µM | 34.1 µM |  | 34.2 µM | > 100 µM | 15.5 µM | 98.5 µM |  | 27.1 µM | > 100 µM
20 | CC1SCc2nc3ccccc3n21 (stereo unspecified) | > 100 µM | > 100 µM | 83.3 µM | > 100 µM | > 100 µM | > 100 µM | > 100 µM | > 100 µM | > 100 µM |  | > 100 µM | > 100 µM | > 100 µM | > 100 µM | > 100 µM |  | > 100 µM | > 100 µM | > 100 µM | > 100 µM
21 | CC(C)NC(=O)OCc1c(CO)c2c(n1C)-c1ccccc1CC2 | 31.3 µM | > 100 µM | > 100 µM | > 100 µM |  | 56.8 µM | > 100 µM | 49.4 µM | 49.6 µM | 38.8 µM | 64.4 µM | > 100 µM |  | > 100 µM | 61.4 µM |  |  |  |  | 
22 | CN(C)C(c1ccccc1)C1COC2Cc3ccccc3C1O2 (stereo unspecified) | > 100 µM | > 100 µM | 89 µM and 89.4 µM | > 100 µM | > 100 µM | > 100 µM | > 100 µM | > 100 µM | > 100 µM |  | > 100 µM | > 100 µM | > 100 µM | > 100 µM | > 100 µM |  | > 100 µM | > 100 µM | > 100 µM | > 100 µM
